Assays:
[1] = toxicity (LD50) in mice, I.V. and P.O.; details: mouse, in vivo
fibrinolytic activity = fibrinolytic activity in male rats after P.O. administration; type: in vivo; details: 25 mg/kg P.O.
Experimental: The fibrinolytic activity was determined on a batch of 7 male rats after administration of 25 mg/kg P.O. of compound I. It was observed that the fibrinolytic activity increases respectively of 14 and 11%, 60 and 90 minutes after the administration of the product. The return to basis values takes place 3 hours after this administration.

monomers of fibrin = experiment: level of monomers of fibrin in the rabbit after I.V. administration; type: in vivo; details: 5 mg/kg I.V.
Text: This decrease reaches 23%, ten minutes after the injection.

platelet stickiness = experiment: platelet stickiness, Salzman method, in the rabbit; type: in vivo; details: 50 mg/kg P.O., 4 hours after administration
Experimental: By using the Salzman method, J. Lab. Clin. Med. 62, 724 (1963), it was observed that the compound I decreases by 20% the platelet stickiness, 4 hours after the administration of 50 mg/kg P.O. of the product in the rabbit.

erythrocytes from human = experiment: aggregation of erythrocytes induced by Dextran, in vitro, human erythrocytes; type: cell-based; details: at 0.001 and 0.002 molar
Text: (§1) The inhibiting action of compound I on the aggregation of erythrocytes induced by Dextran was evidenced in vitro on erythrocytes from human, dog and rabbit, according to the method of Von Kaulla K.N., ArzneimittelForschung, Drug Research 25 (2) 152-155 (1975).

erythrocytes from dog = experiment: aggregation of erythrocytes induced by Dextran, in vitro, dog erythrocytes; type: cell-based; details: at 0.001 and 0.002 molar
Text: as §1

erythrocytes from rabbit = experiment: aggregation of erythrocytes induced by Dextran, in vitro, rabbit erythrocytes; type: cell-based; details: at 0.001 and 0.002 molar
Text: as §1

plasmatic clot = experiment: retraction of plasmatic clot in vitro; type: biochemical; details: concentrations ≥ 1,79 mg/ml of plasma, 60 minutes
Experimental: The inhibiting action of compound I on the retraction of plasmatic clot was evidenced in vitro. At the concentrations ≥ 1,79 mg/ml of plasma, the compound I inhibits totally (100%) the normal retraction of the clot measured for a lapse of 60 minutes.

α2 -macroglobulins = experiment: fibrinolytic inhibitors: α2-macroglobulins titrated by radial immuno-diffusion in standard plasma; type: biochemical; details: one hour at 37° C.
Experimental: (§2) The main inhibitors of anti-plasminic type, viz. α2 -macroglobulins, α1 -anti-trypsins and anti-thrombin III were titrated according to the radial immuno-diffusion techniques.
(§3) Three concentrations of compound I were incorporated to a pool of standard plasma and incubated for one hour at 37° C. At non-lytic doses by deficiency (suspended standard clots) the compound I gives a decrease of about 10% of α2 -macroglobulins level, a decrease of about 20% of α1 -anti-trypsins level and a decrease of about 10% of anti-thrombin III level.

α1 -anti-trypsins = experiment: fibrinolytic inhibitors: α1-anti-trypsins titrated by radial immuno-diffusion in standard plasma; type: biochemical; details: one hour at 37° C.
Experimental: as §2, §3

anti-thrombin III = experiment: fibrinolytic inhibitors: anti-thrombin III titrated by radial immuno-diffusion in standard plasma; type: biochemical; details: one hour at 37° C.
Experimental: as §2, §3

fibrinogen = fibrinogen level in standard plasma incubated with compound I; type: biochemical; details: non-lytic doses by excess (high concentrations)

CCCCCc1cc(O)c(C(=O)O)c(O)c1 [compound I, 4-n-pentyl-6-hydroxy salicylic acid]
LD50 ([1]; iv, I.V.): 50 to 100 mg/kg | LD50 ([1]; po, P.O.): 1000 to 1500 mg/kg | return of fibrinolytic activity to basis values, time after administration (fibrinolytic activity): 3 h | increase of fibrinolytic activity (fibrinolytic activity; 60 minutes after administration): 14% | increase of fibrinolytic activity (fibrinolytic activity; 90 minutes after administration): 11% | decrease of the level of monomers of fibrin (monomers of fibrin; ten minutes after injection): 23% | decrease of the level of monomers of fibrin (monomers of fibrin; two minutes after injection): 10% | decrease of platelet stickiness (platelet stickiness): 20% | inhibition of the aggregation of erythrocytes induced by Dextran (erythrocytes from human): 100% | inhibition of the aggregation of erythrocytes induced by Dextran (erythrocytes from dog): 100% | inhibition of the aggregation of erythrocytes induced by Dextran (erythrocytes from rabbit): 100% | inhibition of the normal retraction of the clot (plasmatic clot): 100% | decrease of α2 -macroglobulins level (α2 -macroglobulins; lytic doses): about 20% | decrease of α2 -macroglobulins level (α2 -macroglobulins; non-lytic doses by deficiency): about 10% | decrease of α1 anti-trypsins level (α1 -anti-trypsins; lytic doses): 80% | decrease of α1 -anti-trypsins level (α1 -anti-trypsins; non-lytic doses by deficiency): about 20% | decrease of anti-thrombin III level (anti-thrombin III; lytic doses): 50% | decrease of anti-thrombin III level (anti-thrombin III; non-lytic doses by deficiency): about 10% | fibrinogen level (fibrinogen): important decrease

— patent US4132787A, “Pharmaceutical compositions containing a gamma-resorcylic acid derivative in the treatment of thrombosis” (Science Union et Cie, priority 1975, dated 1979)
